Measurements taken from patent US7872043B2, “Use of furan alkyls for a cellulite cosmetic treatment” (Laboratories Expanscience, priority 2004, dated 2011).

What was measured:
[1] = system: mice fattened on a high fat/high sucrose diet (HF/HS); test: Blood parameters: plasma lipids (total cholesterol, LDL, HDL, TG, FFA); format: in vivo; settings: TZD 10 mg/kg/day; for HDL / Total cholesterol: (3 W***)
Procedure: (§1) We used adult mice (aged 6 weeks) of masculine gender fattened on a high fat/high sucrose diet (HF/HS). Feeding with the HF/HS diet began on mice aged 6 weeks and continued throughout the period of the study. The study was conducted along 2 axes: • prevention: the product was administered as soon as feeding began with the HF/HS diet; • management (curative): the product was administered 12 weeks after the start of the HF/HS diet. Total treatment time (preventive and curative): 23 weeks.
(§2) Each experimental group comprised 10 mice.
(§3) Subsequently the following were analysed: lipoprotein profile (by size exclusion chromatography); apolipoportein A1; lipid composition of the liver (liver triglycerides, cholesterol and free fatty acids); histological analysis of the liver and adipose tissue; staining of accumulated lipids in the liver.
(§4) The different cholesterol blood levels and different fractions were analysed using a HPLC method.

[2] = system: mice fattened on a high fat/high sucrose diet (HF/HS); test: Blood glucose and insulin analysis; format: in vivo; settings: TZD 10 mg/kg/day
Procedure: as §1, §2, §3

[3] = system: ME, FAS, ACC (fatty acid synthesis); test: Liver mRNA expression, real-time Q-RT-PCR: ME, FAS, ACC; format: in vivo, mice; settings: TZD; AV102 (0.25%)
Procedure: (§5) In the liver, the mRNA expressions of 8 genes were determined in 5 mice of each group using real-time Q-RT-PCR analysis.

[4] = system: PGC-1 (mitochondria biogenesis); test: Muscle/BAT mRNA expression: PGC-1; format: in vivo, mice; settings: TZD, AV102 (0.25%)
Procedure: In the brown adipose tissue (BAT) and in the muscles, the mRNA expression of 3 genes was determined in 5 mice of each group by real-time Q-RTR-PCR analysis.

[5] = system: mice fattened on a high fat/high sucrose diet (HF/HS); test: Food intake and weight gain of mice on HF/HS diet; format: in vivo; settings: curative; TZD 10 mg/kg/dy
Procedure: as §1, §2

[6] = system: mice fattened on a high fat/high sucrose diet (HF/HS); test: Plasma lipoprotein profile (size exclusion chromatography); format: in vivo; settings: TZD
Procedure: as §1, §2, §3, §4

ACO (target PPARα) = test: Liver mRNA expression, real-time Q-RT-PCR: ACO; format: in vivo; settings: TZD; AV102 (0.25%); 5 mice per group
Procedure: as §5

CYP7A1 = test: Liver mRNA expression, real-time Q-RT-PCR: CYP7A1; format: in vivo, mice; settings: TZD; AV102 (0.25%)
Procedure: as §5

[7] = system: mice fattened on a high fat/high sucrose diet (HF/HS); test: Hepatic metabolism: transaminases and alkaline phosphatase (liver toxicity); format: in vivo; settings: TZD and AV102 groups; considered very moderate, does not appear to reflect liver toxicity
PEPCK (target PPARγ) = test: Liver mRNA expression, real-time Q-RT-PCR: PEPCK; format: in vivo, mice; settings: TZD; AV102 (0.25%)
Procedure: as §5

[8] = system: mice fattened on a high fat/high sucrose diet (HF/HS); test: Intra Peritoneal Insulin Sensitive Test (IPIST); format: in vivo; settings: preventive; TZD 10 mg/kg/day; (3 W***)
Source text: Diabetics suffer from an increase in insulin resistance which leads to hyperglycaemia.

## CN(CCOc1ccc(CC2SC(=O)NC2=O)cc1)c1ccccn1 (stereo not drawn) [TZD, Rosiglitazone]
[1]; curative
  LDL: reduction
  TG (Triglycerides): No change
  HDL: reduction
  Total cholesterol: reduction
[1]; preventive
  LDL: downward trend
  TG (Triglycerides): significantly reduced
  HDL: significant reduction
  Total cholesterol: significant reduction
[2]; curative, (3 W**)
  GLUCOSE (blood): dropped considerably and ↓↓
[2]; preventive
  GLUCOSE (blood): ↓
  INSULIN (blood): ↓
[3]
  ME, FAS, ACC (fatty acid synthesis) mRNA in the liver: ↑↑
[4]
  PGC-1 (mitochondria biogenesis) mRNA in muscle/BAT: ↑ (muscle)
[5]
  Mouse wt.: did not cause the overweight mice to lose weight
[6]; curative, after 3 weeks' treatment
  Fractions of HDL and VLDL cholesterol (lipoprotein profiles): reduction
[6]; preventive, weeks 8 and 15
  HDL, LDL and VLDL cholesterol fractions (plasma lipoprotein profiles): reduction
ACO (target PPARα)
  ACO (target PPARα) mRNA in the liver: ↑
CYP7A1
  CYP7A1 (conversion oxysterol into biliary acids) mRNA in the liver: ↑↑
[7]
  Plasma ALP: increase
PEPCK (target PPARγ)
  PEPCK (target PPARγ) mRNA in the liver: ↑
[8]
  IPIST (insulin sensitivity test): ↓↓
